In patent US20190054103A1, “METHOD OF TREATMENT OF TP53 WILD-TYPE TUMORS WITH 2',2'-DIFLUORO-5-AZA-2'-DEOXYCYTIDINE OR PRODRUGS THEREOF” (priority 2016, published 2019):

What was measured:
Experiment in all cases: NCI 60 Cell Line Panel growth inhibition
Type in all cases: cell-based, human
CCRF-CEM = details: Leukemia, TP53 null/mutant
Excerpt: (§1) The NCI-60 Cell Line Panel was assembled by the National Cancer Institute as an in vitro anticancer drug screen. The panel comprises human cancer cell lines representing nine different tissues of origin: breast, colon, central nervous system, renal, lung, melanoma, ovarian, prostate, and hematogenous. […] See, e.g., Leroy et al. “Analysis of TP53 Mutation Status in Human Cancer Cell Lines: a Reassesment” Hum Mutat 2014 35(6): 756-765.

HCT-15 = details: HCT-15, Colon cancer, TP53 null/mutant
Excerpt: as §1

SF-539 = details: SF-539, CNS cancer, TP53 null/mutant
Excerpt: as §1

UO-31 = details: UO-31, Renal cancer, TP53 wild type
Excerpt: as §1

EKVX = details: Lung-NSCL, TP53 null/mutant
Excerpt: as §1

IGROV-1 = details: IGROV-1, Ovarian cancer, TP53 null/mutant
Excerpt: as §1

UACC-257 = details: UACC-257, Melanoma, TP53 wild type
Excerpt: as §1

PC-3 = details: PC-3, Prostate cancer, TP53 null/mutant
Excerpt: as §1

HOP-92 = details: HOP-92, Lung-NSCL, TP53 null/mutant
Excerpt: as §1

CAKI-1 = details: CAKI-1, Renal cancer, TP53 wild type
Excerpt: as §1

MOLT-4 = details: MOLT-4, Leukemia, TP53 null/mutant
Excerpt: as §1

BT-549 = details: BT-549, Breast cancer, TP53 null/mutant
Excerpt: as §1

786-0 = details: 786-0, Renal cancer, TP53 null/mutant
Excerpt: as §1

HS 578T = details: Breast cancer, TP53 null/mutant
Excerpt: as §1

HL-60 = details: HL-60, Leukemia, TP53 null/mutant
Excerpt: as §1

SW-620 = details: SW-620, Colon cancer, TP53 null/mutant
Excerpt: as §1

DU-145 = details: DU-145, Prostate cancer, TP53 null/mutant
Excerpt: as §1

NCI/ADR-RES = details: Ovarian cancer, TP53 null/mutant
Excerpt: as §1

SR = details: Leukemia, TP53 wild type
Excerpt: as §1

OVCAR-3 = details: OVCAR-3, Ovarian cancer, TP53 null/mutant
Excerpt: as §1

NCI-H522 = details: NCI-H522, Lung-NSCL, TP53 null/mutant
Excerpt: as §1

SNB-19 = details: SNB-19, CNS cancer, TP53 null/mutant
Excerpt: as §1

SF-268 = details: SF-268, CNS cancer, TP53 null/mutant
Excerpt: as §1

MDA-MB-231 = details: MDA-MB-231, Breast cancer, TP53 null/mutant
Excerpt: as §1

NCI-H322M = details: Lung-NSCL, TP53 null/mutant
Excerpt: as §1

MALME-3M = details: Melanoma, TP53 wild type
Excerpt: as §1

OVCAR-8 = details: OVCAR-8, Ovarian cancer, TP53 null/mutant
Excerpt: as §1

M14 = details: M14, Melanoma, TP53 null/mutant
Excerpt: as §1

SN12C = details: Renal cancer, TP53 null/mutant
Excerpt: as §1

SK-MEL-2 = details: SK-MEL-2, Melanoma, TP53 null/mutant
Excerpt: as §1

LOX IMVI = details: Melanoma, TP53 wild type
Excerpt: as §1

A498 = details: A498, Renal cancer, TP53 wild type
Excerpt: as §1

RXF 393 = details: RXF 393, Renal cancer, TP53 null/mutant
Excerpt: as §1

SF-295 = details: SF-295, CNS cancer, TP53 null/mutant
Excerpt: as §1

OVCAR-5 = details: OVCAR-5, Ovarian cancer, TP53 wild type
Excerpt: as §1

NCI-H460 = details: NCI-H460, Lung-NSCL, TP53 wild type
Excerpt: as §1

SNB-75 = details: SNB-75, CNS cancer, TP53 null/mutant
Excerpt: as §1

Structure (SMILES): Nc1ncn([C@@H]2O[C@H](CO)[C@@H](O)C2(F)F)c(=O)n1 [NUC013, 4-amino-1-((2R,4R,5R)-3,3-difluoro-4-hydroxy-5-(hydroxymethyl)tetrahydrofuran-2-yl)-1,3,5-triazin-2(1H)-one]
- Growth (%) at 10 μM (CCRF-CEM): 23.67%
- Growth (%) at 10 μM (HCT-15): 52.19%
- Growth (%) at 10 μM (SF-539): 22.25%
- Growth (%) at 10 μM (UO-31): 39.00%
- Growth (%) at 10 μM (EKVX): 86.06%
- Growth (%) at 10 μM (IGROV-1): 56.77%
- Growth (%) at 10 μM (UACC-257): 77.54%
- Growth (%) at 10 μM (PC-3): 63.57%
- Growth (%) at 10 μM (HOP-92): 34.34%
- Growth (%) at 10 μM (CAKI-1): 27.86%
- Growth (%) at 10 μM (MOLT-4): 35.63%
- Growth (%) at 10 μM (BT-549): 53.63%
- Growth (%) at 10 μM (786-0): 26.29%
- Growth (%) at 10 μM (HS 578T): 90.37%
- Growth (%) at 10 μM (HL-60): 25.23%
- Growth (%) at 10 μM (SW-620): 51.21%
- Growth (%) at 10 μM (DU-145): 43.48%
- Growth (%) at 10 μM (NCI/ADR-RES): 42.13%
- Growth (%) at 10 μM (SR): 14.99%
- Growth (%) at 10 μM (OVCAR-3): 70.56%
- Growth (%) at 10 μM (NCI-H522): 86.91%
- Growth (%) at 10 μM (SNB-19): 58.88%
- Growth (%) at 10 μM (SF-268): 65.39%
- Growth (%) at 10 μM (MDA-MB-231): 79.98%
- Growth (%) at 10 μM (NCI-H322M): 70.00%
- Growth (%) at 10 μM (MALME-3M): 67.90%
- Growth (%) at 10 μM (OVCAR-8): 49.95%
- Growth (%) at 10 μM (M14): 15.55%
- Growth (%) at 10 μM (SN12C): 51.65%
- Growth (%) at 10 μM (SK-MEL-2): 104.47%
- Growth (%) at 10 μM (LOX IMVI): 34.53%
- Growth (%) at 10 μM (A498): 38.04%
- Growth (%) at 10 μM (RXF 393): 44.97%
- Growth (%) at 10 μM (SF-295): 77.93%
- Growth (%) at 10 μM (OVCAR-5): 86.95%
- Growth (%) at 10 μM (NCI-H460): 9.34%
- Growth (%) at 10 μM (SNB-75): 64.95%
